# According to ChEMBL document CHEMBL5257018, “Novel Strategies for the Treatment of Pseudomonas aeruginosa Infections” (J Med Chem, 2016):
# pIC50, pKd, pKi: −log10 of the molar value.
# Legend:
# Elastase [1] = target: T1, Elastase (Pseudomonas aeruginosa (strain ATCC 15692 / PAO1 / 1C / PRS 101 / LMG12228), UniProt P14756); experiment: Inhibition of Pseudomonas aeruginosa LasB elastase using aminobenzoyl-Ala-Gly-Leu-Ala-p-nitro-benzyl-amide as substrate b microtiter-based fluorimetric assay
# Elastase [2] = target: T1, Elastase; experiment: Inhibition of Pseudomonas aeruginosa LasB elastase
# [3] = target: T2, Transcriptional activator protein LasR (Pseudomonas aeruginosa (strain ATCC 15692 / PAO1 / 1C / PRS 101 / LMG12228)) (UniProt P25084); experiment: Inhibition of Pseudomonas aeruginosa PAO1 LasR at 200 uM relative to control
# T2 sequence (whole entry): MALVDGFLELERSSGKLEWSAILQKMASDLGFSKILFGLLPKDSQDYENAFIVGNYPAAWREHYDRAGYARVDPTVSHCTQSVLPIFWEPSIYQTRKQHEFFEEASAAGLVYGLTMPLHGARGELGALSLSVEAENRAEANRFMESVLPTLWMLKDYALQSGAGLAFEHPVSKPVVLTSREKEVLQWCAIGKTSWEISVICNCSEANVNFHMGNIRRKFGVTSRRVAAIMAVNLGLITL
# Pseudomonas aeruginosa [4] = experiment: Antibacterial activity against Pseudomonas aeruginosa PAO1 infected in Caenorhabditis elegans worms assessed as worms survival rate at 880 uM measured after 72 hrs; type: functional
# Pseudomonas aeruginosa [5] = experiment: Inhibition of Pseudomonas aeruginosa PAO1 Pyocyanin at 440 uM relative to control
# [6] = target: T2, Transcriptional activator protein LasR (Pseudomonas aeruginosa (strain ATCC 15692 / PAO1 / 1C / PRS 101 / LMG12228)); experiment: Inhibition of Pseudomonas aeruginosa PAO1 LasR at 440 uM relative to control
# Pseudomonas aeruginosa [7] = experiment: Inhibition of Pseudomonas aeruginosa PAO1 Pyocyanin at 100 uM relative to control
# [8] = target: T3, Acyl-homoserine lactone acylase PvdQ (Pseudomonas aeruginosa (strain LESB58), UniProt Q9I194); experiment: Inhibition of Pseudomonas aeruginosa ATCC 15692 pvdQ measured after 5 mins
# T3 sequence (Q9I194 whole entry): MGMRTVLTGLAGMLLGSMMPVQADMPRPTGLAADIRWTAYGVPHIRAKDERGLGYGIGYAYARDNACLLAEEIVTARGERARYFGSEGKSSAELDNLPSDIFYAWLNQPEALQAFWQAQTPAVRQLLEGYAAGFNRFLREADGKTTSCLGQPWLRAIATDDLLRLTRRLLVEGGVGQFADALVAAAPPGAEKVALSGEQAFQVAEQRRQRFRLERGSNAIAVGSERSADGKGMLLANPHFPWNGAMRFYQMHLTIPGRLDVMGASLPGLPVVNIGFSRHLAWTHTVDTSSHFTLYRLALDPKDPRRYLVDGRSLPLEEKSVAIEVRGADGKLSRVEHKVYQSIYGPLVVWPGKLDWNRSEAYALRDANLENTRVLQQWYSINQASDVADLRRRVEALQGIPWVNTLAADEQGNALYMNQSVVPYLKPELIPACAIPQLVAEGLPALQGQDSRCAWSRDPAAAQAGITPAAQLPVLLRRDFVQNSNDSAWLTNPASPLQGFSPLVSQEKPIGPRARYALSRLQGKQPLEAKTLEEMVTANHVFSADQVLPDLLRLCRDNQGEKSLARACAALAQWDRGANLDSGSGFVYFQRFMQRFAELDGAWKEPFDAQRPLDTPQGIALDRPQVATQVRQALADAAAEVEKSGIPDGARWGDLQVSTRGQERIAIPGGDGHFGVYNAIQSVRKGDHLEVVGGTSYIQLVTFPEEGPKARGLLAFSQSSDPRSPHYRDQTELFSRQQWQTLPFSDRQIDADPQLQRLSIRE
# [9] = target: T3, Acyl-homoserine lactone acylase PvdQ; experiment: Inhibition of wild type Pseudomonas aeruginosa PAO1 pvdQ
# [10] = target: T3, Acyl-homoserine lactone acylase PvdQ; experiment: Competitive inhibition of Pseudomonas aeruginosa ATCC 15692 pvdQ
# Pseudomonas aeruginosa [11] = experiment: Downregulation of c-di-GMP level in Pseudomonas aeruginosa PA14 planktonic cells harboring wspR gene mutation at 50 uM incubated for 24 hrs by HPLC analysis; type: functional
# [12] = target: Elastase (Pseudomonas aeruginosa (strain ATCC 15692 / PAO1 / 1C / PRS 101 / LMG12228)) (UniProt P14756); experiment: Inhibition of Pseudomonas aeruginosa PAO1 elastase at 200 uM relative to control
# Elastase (Pseudomonas aeruginosa (strain ATCC 15692 / PAO1 / 1C / PRS 101 / LMG12228)), sequence (P14756 198-498 limits assumed): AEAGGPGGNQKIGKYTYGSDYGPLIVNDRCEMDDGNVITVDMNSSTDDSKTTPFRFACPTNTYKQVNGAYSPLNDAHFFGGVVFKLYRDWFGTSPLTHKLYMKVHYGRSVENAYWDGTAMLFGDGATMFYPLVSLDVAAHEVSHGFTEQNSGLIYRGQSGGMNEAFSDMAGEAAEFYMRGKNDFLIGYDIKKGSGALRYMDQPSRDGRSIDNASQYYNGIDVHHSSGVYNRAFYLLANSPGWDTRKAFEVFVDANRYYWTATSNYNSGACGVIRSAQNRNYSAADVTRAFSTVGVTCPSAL
# Pseudomonas aeruginosa [13] = experiment: Inhibition of Pseudomonas aeruginosa PAO1 Pyocyanin at 200 uM relative to control
# Pseudomonas aeruginosa [14] = experiment: Antimicrobial activity against Pseudomonas aeruginosa infected in mouse pneumonia model administered twice a day measured after 48 hrs; type: functional
# Pseudomonas aeruginosa [15] = experiment: Antibacterial activity against multidrug resistant Pseudomonas aeruginosa assessed as reduction in bacterial growth; type: functional
# [16] = target: T4, PA-I galactophilic lectin (Pseudomonas aeruginosa (strain ATCC 15692 / PAO1 / 1C / PRS 101 / LMG12228), UniProt Q05097); experiment: Binding affinity to Pseudomonas aeruginosa PAO1 LecA assessed as dissociation constant
# T4 sequence (Q05097 whole entry): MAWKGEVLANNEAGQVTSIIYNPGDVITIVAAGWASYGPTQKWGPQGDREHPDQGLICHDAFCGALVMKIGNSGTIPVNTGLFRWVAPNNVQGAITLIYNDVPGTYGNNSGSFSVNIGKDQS
# [17] = Half life in mouse; type: ADME, organism-based; conditions: in vivo
# [18] = target: T3, Acyl-homoserine lactone acylase PvdQ; experiment: Inhibition of Pseudomonas aeruginosa ATCC 15692 pvdQ
# [19] = target: T3, Acyl-homoserine lactone acylase PvdQ; experiment: Inhibition of Pseudomonas aeruginosa ATCC 15692 pvdQ incubated for 4 hrs
# [20] = target: Elastase (Pseudomonas aeruginosa (strain ATCC 15692 / PAO1 / 1C / PRS 101 / LMG12228)) (UniProt P14756); experiment: Inhibition of Pseudomonas aeruginosa PAO1 elastase at 250 uM relative to control
# Pseudomonas aeruginosa [21] = experiment: Inhibition of Pseudomonas aeruginosa PAO1 Rhamnolipid at 250 uM by spectrophotometrical analysis relative to control
# Pseudomonas aeruginosa [22] = experiment: Inhibition of Pseudomonas aeruginosa PAO1 Pyocyanin at 250 uM relative to control
# Pseudomonas aeruginosa [23] = experiment: Inhibition of biofilm formation in Pseudomonas aeruginosa PAO1 assessed as reduction in biofilm formation at 250 uM measured for 2 hrs by scanning confocal laser microscopic analysis; type: functional
# [24] = Inhibition of bacterial FabH; design: species or system Bacteria
# Pseudomonas aeruginosa [25] = experiment: Antibiofilm activity against Pseudomonas aeruginosa assessed as reduction in biofilm formation at 100 uM; type: functional; design: scale not given: the % may be the effect or the level left
# Pseudomonas aeruginosa [26] = experiment: Antibiofilm activity against Pseudomonas aeruginosa assessed as reduction in biofilm formation; type: functional, organism-based
# Hexosaminidase D = target: T5, Hexosaminidase D (Homo sapiens, UniProt Q8WVB3); experiment: Inhibition of human recombinant beta-hexosaminidase
# T5 sequence (Q8WVB3 whole entry): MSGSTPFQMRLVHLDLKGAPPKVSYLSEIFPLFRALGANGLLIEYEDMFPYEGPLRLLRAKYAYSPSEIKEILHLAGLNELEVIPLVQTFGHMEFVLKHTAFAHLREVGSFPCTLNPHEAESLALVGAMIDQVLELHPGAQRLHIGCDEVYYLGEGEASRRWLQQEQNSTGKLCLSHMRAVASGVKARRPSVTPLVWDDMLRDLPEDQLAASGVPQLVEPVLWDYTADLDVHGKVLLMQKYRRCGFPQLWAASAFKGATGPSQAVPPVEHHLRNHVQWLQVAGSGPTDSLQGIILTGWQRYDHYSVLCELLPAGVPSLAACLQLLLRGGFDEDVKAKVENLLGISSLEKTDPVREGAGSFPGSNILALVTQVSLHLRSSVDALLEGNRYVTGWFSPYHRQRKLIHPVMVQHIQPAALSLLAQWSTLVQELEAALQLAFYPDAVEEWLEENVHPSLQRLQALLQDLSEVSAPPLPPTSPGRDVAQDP
# T1 sequence (P14756 whole entry): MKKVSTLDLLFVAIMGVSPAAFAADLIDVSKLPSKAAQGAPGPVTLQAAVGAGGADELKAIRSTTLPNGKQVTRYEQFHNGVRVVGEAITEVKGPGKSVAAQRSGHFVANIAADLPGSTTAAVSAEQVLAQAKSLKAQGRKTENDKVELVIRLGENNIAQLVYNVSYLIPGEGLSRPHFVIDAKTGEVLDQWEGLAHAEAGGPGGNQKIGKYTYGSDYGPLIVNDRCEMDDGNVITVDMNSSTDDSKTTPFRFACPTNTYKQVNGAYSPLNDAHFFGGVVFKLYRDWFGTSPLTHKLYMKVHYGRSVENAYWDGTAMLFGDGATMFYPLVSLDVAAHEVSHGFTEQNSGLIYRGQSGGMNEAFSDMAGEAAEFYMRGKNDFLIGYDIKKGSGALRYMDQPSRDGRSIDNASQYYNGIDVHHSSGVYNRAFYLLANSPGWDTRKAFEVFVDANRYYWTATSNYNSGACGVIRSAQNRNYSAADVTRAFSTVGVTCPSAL
structure (smiles),measurement,setting,value
NC(=O)[C@H](Cc1ccc(O)cc1)NC(=O)[C@H](Cc1ccccc1)NC(=O)CS,pKi,Elastase [1],7.39
same,pIC50,Elastase [2],5.22
O=C(CCCc1c[nH]c2ccccc12)N[C@H]1CCOC1=O,inhibition,[3],66%
O=C1CNC(=O)CN1 [DIKETOPIPERAZINE],Activity,Pseudomonas aeruginosa [4],66%
same,inhibition,Pseudomonas aeruginosa [5],85%
same,inhibition,[6],48%
CCCCCCCCCNC(=O)CC(=O)c1ccccc1,inhibition,Pseudomonas aeruginosa [7],90%
N#CC(c1ccc(F)cc1)c1cccc(C(F)(F)F)n1 (centres undefined),pIC50,[8],5.72
same,pIC50,[9],4.72
same,pKi,[10],9.72
O=c1c2ccccc2[se]n1-c1ccccc1 [EBSELEN],Activity,Pseudomonas aeruginosa [11],80%
CCCCCCCCCC(=O)CC(=O)Nc1cccc(OC)c1,inhibition,[12],63%
same,inhibition,Pseudomonas aeruginosa [13],93%
COc1ccc(-c2ccn(CC[C@](C)(C(=O)NO)S(C)(=O)=O)c(=O)c2)c(F)c1,ED50,Pseudomonas aeruginosa [14],< 25 mg/kg
CNc1cc(F)cc2c1[nH]c1nc(Sc3cnc(C)nc3)nc(N3C[C@H]4C[C@@H](N(C)C)[C@H]4C3)c12,MIC,Pseudomonas aeruginosa [15],2 µg/mL
CO[C@H]1O[C@H](CNS(=O)(=O)c2c(C)cc(C)cc2C)[C@@H](O)[C@H](O)[C@@H]1O,pKd,[16],5.48
same,half-life,[17],5 min
C=CCNc1ncnc2ccc(Br)cc12,pIC50,[18],3.89
same,pIC50,[19],> 7.70
CCCCCCCCCC(=O)NC1CCCC1 [N-CYCLOPENTYLDECANAMIDE],inhibition,[20],77%
same,inhibition,Pseudomonas aeruginosa [21],87%
same,inhibition,Pseudomonas aeruginosa [22],64%
same,inhibition at 250 µM,Pseudomonas aeruginosa [23],100%
CCN(CC)S(=O)(=O)c1cc(C(=O)Nc2ccccc2C(=O)O)ccc1Br,pIC50,[24],4.19
COc1ccc(/C=C/C(=O)NC[C@H]2O[C@H](OC)[C@@H](O)[C@@H](O)[C@@H]2O)cc1OC,pKd,[16],4.96
same,half-life,[17],5 min
O=C(Nc1ccc(Nc2ccccc2)cc1)c1ccccc1,Activity,Pseudomonas aeruginosa [25],22%
same,pIC50,Pseudomonas aeruginosa [26],4.59
C[C@@H](Oc1ccc(Cl)cc1Cl)C(=O)NCc1ccc2c(c1)OCO2,pIC50,Hexosaminidase D,4.90
